Experimental data taken from patent publication US8008292B2, “Condensed benzamide compounds and inhibitors of vanilloid receptor subtype 1 (VR1) activity” (Japan Tobacco Inc., priority 2004, dated 2011).

Biological target: T1, human VR1 (Homo sapiens, UniProt Q8NER1)
T1 construct: expressed in transfected cells
Assay: Inhibition of Ca2+ entry in cells caused by proton, in rat glioma (C6BU1) cells stably expressing human VR1 (Fura 2 fluorescence)
Type: cell-based
Conditions: inhibition of proton-induced Ca2+ entry
Experimental: The assay for evaluation of VR1 inhibition by the inventive compounds will be described below. The assay was intended to evaluate in vitro inhibition of Ca^2+ entry in cells caused by proton, one of the VR1 agonists.
Rat glioma (C6BU1) cells stably expressing human VR1 were suspended in 20 mM MES buffer (at pH 6.8, contg. 20 mM 2-morpholinoethanesulfonate (referred to as MES hereinafter), 115 mM NaCl, 5 mM KCl, 1 mM MgCl2 and 14 mM D-glucose) to make a cell density of 1×10^6 cells/mL. A fluorescent dye, Fura 2-AMsolution (DojindoCorporate, Cat. No. 343-05401) was added to the suspension to make a 5 μM concentration thereof. Further, Pluronic F-127 (Wako Pure Chemical Industries, Ltd., Cat. No. P6866) was added to make a 0.1% content thereof. Then, the suspension was incubated at 37° C. for 30 min. The cells were harvested and washed three times with 20 mM MES buffer. The cells were suspended again to make a cell density of 5×10^5 cells/mL. A 500-μL portion of the suspension was taken with a cuvette (MC MEDICAL, INC., Cat. No. SSR3121), to which 10 μL of 20 mM MES buffer containing 250 mM CaCl2 was added to incorporate Ca^2+ into the cells. At the same time, 5 μL of a test compound solution (in a range of 100 μM to 10 nM in DMSO) was also added to provide a final concentration thereof in a range of 1 μM to 0.1 nM. Alternatively, 5 μL of DMSO was added as control to provide a final concentration of 1% DMSO. The suspension was set in an intracellular ionometer (CAF-110; JASCO) 10 min after those additions. The cells were stimulated with protons by addition of 60 μL of 20 mM MES buffer at pH 1.1 to the suspension to set its pH at 5.5. The activity of the test compound was determined as a difference between the minimum of fluorescence intensity before agonist stimulation and its maximum after the stimulation. The value of IC50 was derived from percentage of inhibition by the test compound compared with the control.
In the tables, the symbol “++” indicates an IC50 value less than 100 nM and the symbol “+” indicates an IC50 value of 100 nM to 1,000 nM inclusive.

T1 sequence (Q8NER1 whole entry): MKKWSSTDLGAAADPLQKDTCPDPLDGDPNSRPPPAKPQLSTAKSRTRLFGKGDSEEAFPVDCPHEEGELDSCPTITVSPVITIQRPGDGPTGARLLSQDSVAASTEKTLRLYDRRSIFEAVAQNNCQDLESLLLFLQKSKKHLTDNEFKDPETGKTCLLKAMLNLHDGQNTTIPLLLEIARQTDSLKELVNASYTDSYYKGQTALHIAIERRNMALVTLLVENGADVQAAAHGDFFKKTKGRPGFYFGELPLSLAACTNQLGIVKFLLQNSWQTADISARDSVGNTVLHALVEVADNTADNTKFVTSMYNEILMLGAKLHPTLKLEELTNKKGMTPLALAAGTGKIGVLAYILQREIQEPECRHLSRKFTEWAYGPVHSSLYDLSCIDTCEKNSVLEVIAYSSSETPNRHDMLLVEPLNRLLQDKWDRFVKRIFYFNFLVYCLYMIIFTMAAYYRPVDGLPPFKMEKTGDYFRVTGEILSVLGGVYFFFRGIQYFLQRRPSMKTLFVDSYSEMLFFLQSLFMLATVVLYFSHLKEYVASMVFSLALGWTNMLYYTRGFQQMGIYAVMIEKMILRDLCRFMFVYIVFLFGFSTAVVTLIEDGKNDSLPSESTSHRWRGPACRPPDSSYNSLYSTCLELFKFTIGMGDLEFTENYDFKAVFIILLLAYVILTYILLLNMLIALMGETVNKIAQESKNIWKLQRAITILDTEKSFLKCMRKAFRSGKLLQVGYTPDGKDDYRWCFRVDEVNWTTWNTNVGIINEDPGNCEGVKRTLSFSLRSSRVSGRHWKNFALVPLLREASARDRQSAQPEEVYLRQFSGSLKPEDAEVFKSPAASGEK

SMILES	IC50
CCOc1ccc(NC(=O)c2cccc3c2OCCN3c2ncccc2Cl)cc1 [Example 1-094]	< 100 nM
O=C(Nc1ccc(N2CCCCC2)c(F)c1)c1cccc2c1OCCN2c1ncccc1Cl [Example 1-095]	< 100 nM
O=C(N[C@H]1CC[C@H](OC2CCCC2)CC1)c1cccc2c1OCCN2c1ncccc1Cl [Example 1-098]	100 to 1000 nM
O=C(N[C@H]1CC[C@H](OC2CCCCC2)CC1)c1cccc2c1OCCN2c1ncccc1Cl [Example 1-099]	100 to 1000 nM
O=C(Nc1ccc(C(F)(F)F)cc1)c1cccc2c1OCCN2c1ncccc1Cl [Example 1-100]	< 100 nM
COC1CCN(c2ccc(NC(=O)c3cccc4c3OCCN4c3ncccc3Cl)cc2F)CC1 [Example 1-101]	< 100 nM
CCOC1CCN(c2ccc(NC(=O)c3cccc4c3OCCN4c3ncccc3Cl)cc2F)CC1 [Example 1-102]	< 100 nM
CC(C)OC1CCN(c2ccc(NC(=O)c3cccc4c3OCCN4c3ncccc3Cl)cc2F)CC1 [Example 1-103]	< 100 nM
CC(C)CNc1ccc(NC(=O)c2cccc3c2OCCN3c2ncccc2Cl)cc1F [Example 1-104]	< 100 nM
Cc1ccc(N2CCOc3c(C(=O)N[C@H]4CC[C@H](OC(C)C)CC4)cccc32)nc1 [Example 1-106]	100 to 1000 nM
Cc1ccc(N2CCOc3c(C(=O)N[C@H]4CC[C@H](OC5CCCCC5)CC4)cccc32)nc1 [Example 1-107]	< 100 nM
Cc1ccc(N2CCOc3c(C(=O)N[C@H]4CC[C@H](OCC5CCCCC5)CC4)cccc32)nc1 [Example 1-119]	< 100 nM
CCOc1ccc(NC(=O)c2cccc3c2OCCN3c2ccc(Cl)cn2)cc1 [Example 1-120]	< 100 nM
O=C(Nc1ccc(C(F)(F)F)cc1)c1cccc2c1OCCN2c1ccc(Cl)cn1 [Example 1-123]	< 100 nM
Cc1ccc(N2CCOc3c(C(=O)NCCc4ccccc4)cccc32)nc1 [Example 1-124]	< 100 nM
Cc1ccc(N2CCOc3c(C(=O)NCCc4ccc(Cl)cc4)cccc32)nc1 [Example 1-125]	< 100 nM
Cc1ccc(N2CCOc3c(C(=O)NCCc4cccc(Cl)c4)cccc32)nc1 [Example 1-126]	< 100 nM
Cc1ccc(N2CCOc3c(C(=O)NCCc4ccccc4Cl)cccc32)nc1 [Example 1-127]	< 100 nM
O=C(O)c1ccc(N2CCOc3c(C(=O)Nc4ccc(C(F)(F)F)cc4)cccc32)nc1 [Example 1-128]	100 to 1000 nM

SMILES	IC50
CC(C)(O)c1cnc(N2CCOc3c(C(=O)Nc4ccc(C(F)(F)F)cc4)cccc32)c(Cl)c1 [Example 1-129]	< 100 nM
CC(O)c1cnc(N2CCOc3c(C(=O)Nc4ccc(C(F)(F)F)cc4)cccc32)c(Cl)c1 (centres unmarked) [Example 1-130]	< 100 nM
O=C(O)c1cnc(N2CCOc3c(C(=O)Nc4ccc(C(F)(F)F)c(F)c4)cccc32)c(Cl)c1 [Example 1-131]	100 to 1000 nM
COC(=O)c1ccc(N2CCOc3c(C(=O)Nc4ccc(C(C)(C)C)cc4)cccc32)nc1 [Example 1-132]	100 to 1000 nM
CC(C)(C)c1ccc(NC(=O)c2cccc3c2OCCN3c2ccc(C(=O)O)cn2)cc1 [Example 1-133]	100 to 1000 nM
O=C(O)c1cnc(N2CCOc3c(C(=O)Nc4ccc(C(F)(F)F)cc4)cccc32)c(Cl)c1 [Example 1-136]	< 100 nM
CC(C)(C)c1ccc(NC(=O)c2cccc3c2OCCN3c2ccc([N+](=O)[O-])cn2)cc1 [Example 1-140]	< 100 nM
CC(C)(C)c1ccc(NC(=O)c2cccc3c2OCCN3c2ccc(N)cn2)cc1 [Example 1-141]	< 100 nM
COCc1ccc(N2CCOc3c(C(=O)Nc4ccc(C(F)(F)F)cc4)cccc32)nc1 [Example 1-143]	< 100 nM
CCOc1ccc(N2CCOc3c(C(=O)Nc4ccc(C(F)(F)F)cc4)cccc32)nc1 [Example 1-144]	< 100 nM
COc1cnc(N2CCOc3c(C(=O)Nc4ccc(C(F)(F)F)cc4)cccc32)c(Cl)c1 [Example 1-145]	< 100 nM
O=C(Nc1ccc(C(F)(F)F)cc1)c1cccc2c1OCCN2c1ccc(O)cn1 [Example 1-146]	< 100 nM
CC(C)(C)c1ccc(NC(=O)c2cccc3c2OCCN3c2cc(Cl)ccn2)cc1 [Example 1-148]	< 100 nM
O=C(Nc1ccc(C(F)(F)F)cc1)c1cccc2c1OCCN2c1ccc(F)cn1 [Example 1-149]	< 100 nM
O=C(Nc1ccc(C(F)(F)F)cc1)c1cccc2c1OCCN2c1ncc(F)cc1F [Example 1-150]	< 100 nM
COc1cccnc1N1CCOc2c(C(=O)Nc3ccc(C(C)(C)C)cc3)cccc21 [Example 1-151]	< 100 nM
Cc1ccc(N2CCOc3c(C(=O)NN4CCC(C(C)(C)C)CC4)cccc32)nc1 [Example 1-152]	100 to 1000 nM
O=C(Nc1ccc(C(F)(F)F)cc1)c1cccc2c1OCCN2c1ccc(OCCO)cn1 [Example 1-153]	100 to 1000 nM
O=C(Nc1ccc(C(F)(F)F)cc1)c1cccc2c1OCCN2c1ncc(CCO)cc1Cl [Example 1-154]	< 100 nM

More lines, now with the values ahead:

IC50	SMILES
< 100 nM	COCC1CCN(c2ccc(NC(=O)c3cccc4c3OCCN4c3ccc(C)cn3)cc2F)CC1 [Example 1-071]
< 100 nM	COC1CCN(c2ccc(NC(=O)c3cccc4c3OCCN4c3ccc(C)cn3)cc2F)C1 (centres unmarked) [Example 1-072]
< 100 nM	COC(=O)c1cc(NC(=O)c2cccc3c2OCCN3c2ccc(C)cn2)ccc1OCC(C)C [Example 1-073]
100 to 1000 nM	Cc1ccc(N2CCOc3c(C(=O)Nc4ccc(OCC(C)C)c(C(N)=O)c4)cccc32)nc1 [Example 1-075]
100 to 1000 nM	CNC(=O)c1cc(NC(=O)c2cccc3c2OCCN3c2ccc(C)cn2)ccc1OCC(C)C [Example 1-076]
100 to 1000 nM	Cc1ccc(N2CCOc3c(C(=O)Nc4ccc(OCC(C)C)c(C(=O)N(C)C)c4)cccc32)nc1 [Example 1-077]
< 100 nM	CC(=O)c1ccc(NC(=O)c2cccc3c2OCCN3c2ccc(C)cn2)cc1 [Example 1-078]
< 100 nM	CC(=O)c1cc(NC(=O)c2cccc3c2OCCN3c2ccc(C)cn2)ccc1Cl [Example 1-080]
< 100 nM	Cc1ccc(N2CCOc3c(C(=O)Nc4ccc(Cl)c(C(C)(C)C)c4)cccc32)nc1 [Example 1-081]
< 100 nM	COC(C)(C)c1ccc(NC(=O)c2cccc3c2OCCN3c2ccc(C)cn2)cc1 [Example 1-082]
< 100 nM	COc1cc(NC(=O)c2cccc3c2OCCN3c2ccc(C)cn2)ccc1Cl [Example 1-083]
< 100 nM	CCCOc1ccc(NC(=O)c2cccc3c2OCCN3c2ccc(C)cn2)cc1 [Example 1-084]
< 100 nM	CCCOc1ccc(NC(=O)c2cccc3c2OCCN3c2ccc(C)cn2)cc1F [Example 1-085]
< 100 nM	CCOc1ccc(NC(=O)c2cccc3c2OCCN3c2ccc(C)cn2)cc1F [Example 1-086]
< 100 nM	CCOc1cc(NC(=O)c2cccc3c2OCCN3c2ccc(C)cn2)ccc1C [Example 1-087]
< 100 nM	COCCOc1cc(NC(=O)c2cccc3c2OCCN3c2ccc(C)cn2)ccc1C [Example 1-089]
< 100 nM	COCC1CCCCN1c1ccc(NC(=O)c2cccc3c2OCCN3c2ccc(C)cn2)cc1F (centres unmarked) [Example 1-090]
< 100 nM	Cc1ccc(N2CCOc3c(C(=O)Nc4ccc(Cl)cc4)cccc32)nc1 [Example 1-091]
< 100 nM	Cc1ccc(N2CCOc3c(C(=O)Nc4ccc(C)c(F)c4)cccc32)nc1 [Example 1-092]
100 to 1000 nM	Cc1ccc(N2CCOc3c(C(=O)Nc4ccc(Cl)nc4)cccc32)nc1 [Example 1-093]
< 100 nM	O=C(Nc1ccc(Cl)cc1)c1cccc2c1OCCN2c1ccc(Cl)cn1 [Example 1-121]
< 100 nM	COC1CCN(c2ccc(NC(=O)c3cccc4c3OCCN4c3ccc(Cl)cn3)cc2F)CC1 [Example 1-122]
< 100 nM	COc1ccc(N2CCOc3c(C(=O)Nc4ccc(C(F)(F)F)cc4)cccc32)nc1 [Example 1-147]
< 100 nM	Cc1ccc(N2CCOc3c(C(=O)Nc4ccc(OCC(C)(C)O)cc4)cccc32)nc1 [Example 1-155]
< 100 nM	Cc1ccc(N2CCOc3c(C(=O)Nc4ccc(N5CCCCC5)c(F)c4)cccc32)nc1 [Example 1-156]
< 100 nM	Cc1ccc(N2CCOc3c(C(=O)Nc4ccc(N5CCOCC5)c(F)c4)cccc32)nc1 [Example 1-157]
< 100 nM	Cc1ccc(N2CCOc3c(C(=O)Nc4ccc(F)c(F)c4)cccc32)nc1 [Example 1-158]
< 100 nM	COc1ccc(NC(=O)c2cccc3c2OCCN3c2ccc(C)cn2)cc1F [Example 1-159]
< 100 nM	CCOc1ccc(NC(=O)c2cccc3c2OCCN3c2ccc(C)cn2)cc1 [Example 1-160]
< 100 nM	Cc1ccc(N2CCOc3c(C(=O)Nc4ccc5c(c4)N(C)CCC5)cccc32)nc1 [Example 1-162]
